US20050256134A1, “Use of creatine analogues and creatine kinase modulators for the prevention and treatment of glucose metabolic disorders” (AVICENA GROUP, INC., priority 1995, published 2005)

Legend:
[1] = system: Male Zuker diabetic fatty (ZDF-fa/fa) rats; test: Creatine compounds as 1% of the diet, glucose and insulin levels in diabetic rats; assay type: in vivo, rat
Description: (§1) This preliminary study was initiated to gain insight into the potential regulation of glucose levels by creatine compounds in ZDF rats, a widely studied rodent model of NIDDM (Peterson, Lessons from Animal Diabetes, 1994, Pages 225-230). Male Zuker diabetic fatty (ZDF-fa/fa) rats and their lean Zuker littermates (ZDF +/?) were from Genetic Models, Inc., Indianapolis, Ind. […] Hyperglycemia is initially manifested at about 7 weeks of age and all obese rats are fully diabetic by 12 weeks of age (fed blood glucose of greater than 500 mg %). This level of hyperglycemia increases slightly for several weeks thereafter. Between 7 and 10 weeks, blood insulin levels are high but these subsequently drop as the pancreatic beta cells cease to respond to the glucose stimulus. The lean (ZDF/Gmi) rats are the control counterparts of the diabetic animals. These rats have the same genetics as the obese animals except for the obesity trait. No phenotypic differences have been observed between these rats and other typical lean control rats.
(§2) Male Zuker diabetic fatty (ZDF-fa/fa) rats and Zuker lean littermates (ZDF +/?) were 12 weeks old when dosing with creatine compounds was initiated. The ZDF-fa/fa rats were completely diabetic. The littermates were the same age. […] Animals were bled regularly throughout the experiment and glucose and insulin levels were determined using standard procedures (Linco RI-13K). […]

[2] = system: Zuker lean littermates (ZDF +/?); test: Creatine compounds as 1% of the diet, glucose and insulin levels in lean littermates; assay type: in vivo, rat
Description: as §1, §2

## NC1=NCCN1CC(=O)O [cyclocreatine]
[1]; obese diabetic animals, vs Day 0, n=3
  drop in glucose levels: ~20%
[1]; obese fatty animals
  effect on insulin levels: minimally affected
[2]; lean animals
  drop in insulin levels: over 50%
[2]; lean rats, vs Day 0, n=3
  drop in level of glucose: about 15%
